“And” between values parts separate entries of the source, which are not always exact repeats. Equal entries are not always repeated.
Key:
GK rats [1] = experiment: GK rat chronic efficacy, compound in feed for 20 days; type: in vivo; details: for % HBA1c / Liver Triglycerides: following 20 days of treatment in the GK rat; for % HBA1c / Liver Triglycerides / Fasted blood glucose / Fasted plasma insulin: individual animals
Experimental: At the start of the study, fed glucose was measured at 8 A.M., and animals were selected and sorted into treatment groups based on ambient glucose (n = 10/male GK group, n = 6/male WKY control group). […] Fed blood glucose, food intake, and body weights were determined on days 0, 1, 3, 7, and 14 of study at 8 A.M. On days 7 and 14, food was removed for 5 h and plasma glucose was measured. Percent inhibitions were calculated as the percent reduction of blood glucose from the average value for vehicle controls. On day 14, blood was collected from the tail vein (20 μl) after the morning glucose measurement and after 5 h fast from a subset of n = 3 rats per treatment group to determine the ambient and fasted exposure of the compounds in circulation. The blood was stored at 4°C in 0.1 M sodium monocitrate for subsequent analysis. Animals were then re-fed their respective diet treatments. On day 20 of treatment at 8 A.M., blood glucose was measured and then animals were euthanized via CO2 asphyxiation. Blood and liver tissue were sampled, processed, and stored at -80°C until analysis.
Plasma was analyzed for triglycerides, NEFA, and HbA1C using a P Modular Roche Clinical Chemistry analyzer. Liver triglycerides were extracted as described by Bligh and Dyer, and were measured using the Infinity triglyceride assay kit (Thermo Scientific, Rockford, IL). Plasma insulin levels were measured via EIA (Mesoscale Discovery ELISA Kit, Gaithersburg MD).

GK rats [2] = experiment: OGTT with insulin co-measurement on Day 13 of chronic treatment, parallel set of animals; type: in vivo, rat; set-up: unit not given here; details: Time 10, individual animals
rat GPR120 (FFAR4) = target: T1, rat GPR120 (FFAR4) (Rattus norvegicus, UniProt Q2AC31); experiment: IP1 functional assay, HEK293 cells stably expressing rat GPR120; type: cell-based; details: individual experiments (raw data of Table 1)
T1 construct: expressed in transfected cells
T1 sequence (Q2AC31 1-361): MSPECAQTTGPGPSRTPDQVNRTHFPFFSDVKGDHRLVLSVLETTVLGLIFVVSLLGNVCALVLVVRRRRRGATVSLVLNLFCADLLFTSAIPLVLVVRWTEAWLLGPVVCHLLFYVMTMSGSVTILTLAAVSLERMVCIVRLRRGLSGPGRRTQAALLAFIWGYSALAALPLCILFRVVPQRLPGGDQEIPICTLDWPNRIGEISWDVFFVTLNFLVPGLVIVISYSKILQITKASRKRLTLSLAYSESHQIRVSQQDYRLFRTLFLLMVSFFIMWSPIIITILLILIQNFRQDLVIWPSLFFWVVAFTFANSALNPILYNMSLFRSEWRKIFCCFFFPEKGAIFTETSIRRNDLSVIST
Experimental: CHO Jump-IN cells stably expressing rat GPR40 or HEK293 Jump-IN cells stably expressing rat GPR120 were cultured in DMEM media supplemented with 10% dialyzed FBS, non-essential amino acids, penicillin/streptomycin, 10 μg/ml Blasticidin S HCL and 200 or 100 μg/ml Hygromycin B, respectively (Life Technologies). Cell stocks were maintained and grown in a sub-confluent state using standard cell culture procedures. The day before the experiment, the cells were harvested with non-enzymatic cell dissociation buffer and re-suspended in DMEM supplemented as described above at 0.15 million cells per ml. […] The seeded plates were incubated overnight at 37°C in a humidified environment.
On the day of the experiment, the growth media was removed from the assay plate by centrifugation using a BlueCatBio BlueWasher, protocol #21 “Light Dry” and 10 μl of IP1 stimulation buffer (prepared according to the Cisbio IP-one Tb HTRF kit) is added to each well. Test compounds were dissolved and serially diluted in DMSO as 200X the final assay concentration and 50 nl of the compound dilution was acoustically added to each well of the assay plates. The plates were then incubated for 60 minutes at room temperature and 10 μl of detection buffer (prepared according to the IP-one Tb HTRF kit) is added to each well of the assay plate. […] Maximal % activation and EC50 are then determined for each test compound.

[3] = plasma exposure of the compounds on day 14 of the chronic study; type: in vivo, rat; details: day 14, similar at fed and fasted time points, GK rats
Experimental: At the start of the study, fed glucose was measured at 8 A.M., and animals were selected and sorted into treatment groups based on ambient glucose (n = 10/male GK group, n = 6/male WKY control group). Animals were then placed on diet (LabDiet # 5001) that contained, or was devoid of, compound at the daily doses indicated. Fed blood glucose, food intake, and body weights were determined on days 0, 1, 3, 7, and 14 of study at 8 A.M. On days 7 and 14, food was removed for 5 h and plasma glucose was measured. Percent inhibitions were calculated as the percent reduction of blood glucose from the average value for vehicle controls. On day 14, blood was collected from the tail vein (20 μl) after the morning glucose measurement and after 5 h fast from a subset of n = 3 rats per treatment group to determine the ambient and fasted exposure of the compounds in circulation. The blood was stored at 4°C in 0.1 M sodium monocitrate for subsequent analysis. Animals were then re-fed their respective diet treatments. On day 20 of treatment at 8 A.M., blood glucose was measured and then animals were euthanized via CO2 asphyxiation. Blood and liver tissue were sampled, processed, and stored at -80°C until analysis.

- effect on food intake (GK rats [1]; 10 mg/kg in feed, GK rats): no significant effect
- % Activation (rat GPR120 (FFAR4)): -22% and -18% and -16% and 8%
- EC50 (rat GPR120 (FFAR4)): > 10 µM
- plasma exposure ([3]; 10 mg/kg in feed): ~ 15 μM
- plasma exposure ([3]; 30 mg/kg in feed): ~ 39 μM
Compound: O=C1NC(=O)C(C2CCOc3cc(Oc4ccc(C(F)(F)F)cc4Cl)ccc32)S1 (stereo not drawn) [MK-2305]
- effect on body weight (GK rats [1]; 10 mg/kg in feed, GK rats): no significant effect
- effect on food intake (GK rats [1]; 30 mg/kg in feed, GK rats, p < 0.05): reduction in food intake that persisted through day 14
- effect on body weight (GK rats [1]; 30 mg/kg in feed, GK rats, relative to vehicle controls): did not correspond to changes in body weight
- % HBA1c (GK rats [1]; 10 mpk): 4.3% and 4.6% and 4.2% and 4.4% and 4.5%
- Liver Triglycerides (GK rats [1]; 10 mpk): 19.1 mg/g tissue and 21.7 mg/g tissue and 24.5 mg/g tissue and 22.1 mg/g tissue and 24.7 mg/g tissue and 26.9 mg/g tissue and 25.8 mg/g tissue and 22.8 mg/g tissue
- Morning (fed) Blood Glucose (GK rats [1]; 30 mpk in feed, Day 0 (start of study), individual GK rats): 189 mg/dL and 176 mg/dL and 238 mg/dL and 199 mg/dL and 183 mg/dL and 212 mg/dL and 192 mg/dL and 274 mg/dL and 228 mg/dL
- Morning (fed) Blood Glucose (GK rats [1]; 30 mpk in feed, Day 1, individual GK rats): 147 mg/dL and 165 mg/dL and 223 mg/dL and 161 mg/dL and 155 mg/dL and 192 mg/dL and 153 mg/dL and 302 mg/dL and 159 mg/dL
- Morning (fed) Blood Glucose (GK rats [1]; 30 mpk in feed, Day 3, individual GK rats): 139 mg/dL and 153 mg/dL and 156 mg/dL and 150 mg/dL and 169 mg/dL and 149 mg/dL and 154 mg/dL and 218 mg/dL and 134 mg/dL
- Morning (fed) Blood Glucose (GK rats [1]; 30 mpk in feed, Day 7, individual GK rats): 139 mg/dL and 153 mg/dL and 126 mg/dL and 142 mg/dL and 151 mg/dL and 181 mg/dL and 197 mg/dL and 140 mg/dL
- Morning (fed) Blood Glucose (GK rats [1]; 30 mpk in feed, Day 14, individual GK rats): 141 mg/dL and 143 mg/dL and 156 mg/dL and 133 mg/dL and 132 mg/dL and 146 mg/dL and 147 mg/dL
- Morning (fed) Blood Glucose (GK rats [1]; 30 mpk in feed, Day 20, individual GK rats): 128 mg/dL and 137 mg/dL and 159 mg/dL and 133 mg/dL and 139 mg/dL and 122 mg/dL and 126 mg/dL and 115 mg/dL and 142 mg/dL
- % HBA1c (GK rats [1]; 30 mpk): 4.4% and 4.5% and 4.3%
- Liver Triglycerides (GK rats [1]; 30 mpk): 16.7 mg/g tissue and 23.9 mg/g tissue and 28.2 mg/g tissue and 27.1 mg/g tissue and 24.5 mg/g tissue and 23 mg/g tissue and 24.3 mg/g tissue
- Fasted blood glucose (GK rats [1]; Day 7, ~6 hrs after food removal, 30mpk, chronic study, 30 mg/kg): 110 mg/dl (2×) and 125 mg/dl and 135 mg/dl and 103 mg/dl and 141 mg/dl and 118 mg/dl (2×) and 114 mg/dl
- Fasted plasma insulin (GK rats [1]; Day 7, 10mpk, 10 mg/kg): 405.2 pg/mL and 91.1 pg/mL and 88.1 pg/mL and 159.3 pg/mL and 284.1 pg/mL and 97.1 pg/mL and 80.9 pg/mL and 605.6 pg/mL and 106.3 pg/mL
- Fasted plasma insulin (GK rats [1]; Day 7, 30mpk, 30 mg/kg): 199.5 pg/mL and 58.7 pg/mL and 102.1 pg/mL and 88.8 pg/mL and 104.2 pg/mL and 182.8 pg/mL and 66.3 pg/mL and 259.0 pg/mL and 51.6 pg/mL
- Fasted plasma insulin (GK rats [1]; Day 14, 10mpk, 10 mg/kg): 66.8 pg/mL and 405.9 pg/mL and 135.1 pg/mL and 49.4 pg/mL and 1589.0 pg/mL and 353.3 pg/mL and 247.1 pg/mL and 127.3 pg/mL and 158.9 pg/mL
- Fasted plasma insulin (GK rats [1]; Day 14, 30mpk, 30 mg/kg): 80.8 pg/mL and 3482.1 pg/mL and 77.9 pg/mL and 794.5 pg/mL and 102.8 pg/mL and 430.5 pg/mL and 972.9 pg/mL and 1169.4 pg/mL and 1639.6 pg/mL
- NEFA (mEq/L) (GK rats [1]; MK2305 @ 10, 20 days of treatment, individual GK rats): 0.23 mEq/L and 0.33 mEq/L and 0.26 mEq/L and 0.5 mEq/L and 0.19 mEq/L and 0.37 mEq/L and 0.32 mEq/L
- NEFA (mEq/L) (GK rats [1]; MK2305 @ 30, 20 days of treatment, individual GK rats): 0.21 mEq/L and 0.43 mEq/L and 0.24 mEq/L and 0.45 mEq/L and 0.39 mEq/L and 0.38 mEq/L and 0.22 mEq/L and 0.34 mEq/L
- Morning (fed) Blood Glucose (GK rats [1]; MK-2305 10 mpk in feed, Day 0 (start of study), individual GK rats, 10 mg/kg): 184 mg/dL and 260 mg/dL and 210 mg/dL and 227 mg/dL and 237 mg/dL and 193 mg/dL and 200 mg/dL and 191 mg/dL and 179 mg/dL
- Morning (fed) Blood Glucose (GK rats [1]; MK-2305 10 mpk in feed, Day 1, individual GK rats, 10 mg/kg): 170 mg/dL and 247 mg/dL and 203 mg/dL and 186 mg/dL and 231 mg/dL and 179 mg/dL and 277 mg/dL and 199 mg/dL and 162 mg/dL
- Morning (fed) Blood Glucose (GK rats [1]; MK-2305 10 mpk in feed, Day 3, individual GK rats, 10 mg/kg): 158 mg/dL and 166 mg/dL and 183 mg/dL and 172 mg/dL and 163 mg/dL and 169 mg/dL and 170 mg/dL and 167 mg/dL
- Morning (fed) Blood Glucose (GK rats [1]; MK-2305 10 mpk in feed, Day 7, individual GK rats, 10 mg/kg): 150 mg/dL and 185 mg/dL and 138 mg/dL and 158 mg/dL and 179 mg/dL and 152 mg/dL and 224 mg/dL and 161 mg/dL
- Morning (fed) Blood Glucose (GK rats [1]; MK-2305 10 mpk in feed, Day 14, individual GK rats, 10 mg/kg): 146 mg/dL and 143 mg/dL and 176 mg/dL and 141 mg/dL and 140 mg/dL and 169 mg/dL and 230 mg/dL
- Morning (fed) Blood Glucose (GK rats [1]; MK-2305 10 mpk in feed, Day 20, individual GK rats, 10 mg/kg): 146 mg/dL and 140 mg/dL and 150 mg/dL and 149 mg/dL and 138 mg/dL and 145 mg/dL and 163 mg/dL and 120 mg/dL
- decrease in fed glucose vs. vehicle (GK rats [1]; day 3, 10 mg/kg in feed, GK rats, p < 0.05): 22%
- decrease in fed glucose vs. vehicle (GK rats [1]; day 3, 30 mg/kg in feed, GK rats, p < 0.05): 27%
- reduction in fasting blood glucose vs. vehicle (GK rats [1]; day 7, 5 hr fast, 10 mg/kg in feed, GK rats): 19%
- reduction in fasting blood glucose vs. vehicle (GK rats [1]; day 7, 5 hr fast, 30 mg/kg in feed, GK rats): 19%
- reduction in fasting blood glucose vs. vehicle (GK rats [1]; day 14, 5 hr fast, 10 mg/kg in feed, GK rats): 26%
- reduction in fasting blood glucose vs. vehicle (GK rats [1]; day 14, 5 hr fast, 30 mg/kg in feed, GK rats): 30%
- effect on circulating HbA1C levels (GK rats [1]; day 20, GK rats, all treatment groups): significantly reduced
- effect on liver triglyceride levels (GK rats [1]; day 20, GK rats, vs. vehicle controls): no effect
- effect on plasma non-esterified fatty acid (NEFA) levels (GK rats [1]; day 20, either dose (10, 30 mg/kg), GK rats): no effect
- effect on fasted plasma insulin (GK rats [1]; days 7 and 14, 5 hr fast, GK rats): no significant effects
- Fasted blood glucose (GK rats [1]; second block of the table (day 14 per title), 10mpk, 10 mg/kg): 151 mg/dL and 95 mg/dL and 111 mg/dL and 128 mg/dL and 118 mg/dL and 120 mg/dL and 116 mg/dL and 138 mg/dL and 117 mg/dL
- Fasted blood glucose (GK rats [1]; second block of the table (day 14 per title), 30mpk, 30 mg/kg): 112 mg/dl and 113 mg/dl and 108 mg/dl and 115 mg/dl (2×) and 126 mg/dl and 105 mg/dl and 123 mg/dl and 119 mg/dl
- Change in plasma insulin from baseline during OGTT (delta insulin) (GK rats [2]; Acute, 30 mpk, 30 mg/kg): 1.28 and 1.368 and 1.816 and 3.661 and 3.304 and 1.312 and 2.648 and 2.392 and 0.317 and 1.559
- Change in plasma insulin from baseline during OGTT (delta insulin) (GK rats [2]; Chronic, 30 mkd): 1.342 and 0.561 and 1.202 and 1.9 and 1.117 and 1.167 and 2.431 and 1.17 and 1.428 and 0.831

— PMC5441580, “GPR40 partial agonist MK-2305 lower fasting glucose in the Goto Kakizaki rat via suppression of endogenous glucose production” (PLoS ONE, 2017)
